Assay results from publication PMC6792352, “Limited Chemical Structural Diversity Found to Modulate Thyroid Hormone Receptor in the Tox21 Chemical Library” (Environmental Health Perspectives, 2019).
Structures can show the parent of a compound that is named as a salt.

Assay: in vitro
Conditions: rat, gh3-tre-luc cells

Compound: CCC(C)CO (centres unmarked) [2-Methyl-1-butanol]
- CC50 at 24 h (AC50 (uM) modified / 1000): > 100 µM

Compound: CCOC(=O)COc1cc(-n2ncc(C(F)(F)F)c(C)c2=O)c(F)cc1Cl [Flufenpyr-ethyl]
- CC50 at 24 h (AC50 (uM) modified / 1000): > 90 µM

Compound: CC(=O)c1c(C)c([N+](=O)[O-])c(C(C)(C)C)c([N+](=O)[O-])c1C [Musk ketone]
- CC50 at 24 h (AC50 (uM) modified / 1000): 80.9 µM

Compound: COc1cccc(Br)c1 [1-Bromo-3-methoxybenzene]
- CC50 at 24 h (AC50 (uM) modified / 1000): > 90 µM

Compound: C=CC(C)(CCC=C(C)C)OC(=O)CC (centres unmarked) [3,7-Dimethylocta-1,6-dien-3-yl propanoate]
- CC50 at 24 h (AC50 (uM) modified / 1000): > 90 µM

Compound: Oc1c(Cl)ccc(Cl)c1Cl [2,3,6-Trichlorophenol]
- CC50 at 24 h (AC50 (uM) modified / 1000): > 90 µM

Compound: O=C(O[C@H]1CN2CCC1CC2)N1CCc2ccccc2[C@@H]1c1ccccc1 [Solifenacin hydrochloride]
- CC50 at 24 h (AC50 (uM) modified / 1000): 19.6 µM

Compound: Cc1cc(Cl)ccc1OCC(=O)O [MCPA]
- CC50 at 24 h (AC50 (uM) modified / 1000): > 90 µM

Compound: COCCOC(=O)C1=C(C)NC(C)=C(C(=O)OC/C=C/c2ccccc2)C1c1cccc([N+](=O)[O-])c1 (centres unmarked) [Cilnidipine]
- CC50 at 24 h (AC50 (uM) modified / 1000): 12.4 µM

Compound: CCN(C)N=O [N-Nitroso-N-methylethylamine]
- CC50 at 24 h (AC50 (uM) modified / 1000): > 90 µM

Compound: CC(CN=Cc1ccccc1O)N=Cc1ccccc1O (centres unmarked) [N,N'-Disalicylidene-1,2-diaminopropane]
- CC50 at 24 h (AC50 (uM) modified / 1000): > 90 µM

Compound: OCc1cc(C(O)CNCCCCCCOCCCCc2ccccc2)ccc1O (centres unmarked) [Salmeterol]
- CC50 at 24 h (AC50 (uM) modified / 1000): 10.6 µM

Compound: O=C1OC(=O)C2C1C1(Cl)C(Cl)=C(Cl)C2(Cl)C1(Cl)Cl (centres unmarked) [Chlorendic anhydride]
- CC50 at 24 h (AC50 (uM) modified / 1000): > 90 µM

Compound: CCCCOc1ccc(CC(=O)NO)cc1 [Bufexamac]
- CC50 at 24 h (AC50 (uM) modified / 1000): > 20 µM

Compound: C[C@](N)(Cc1ccc(O)c(O)c1)C(=O)O [Methyldopa sesquihydrate]
- CC50 at 24 h (AC50 (uM) modified / 1000): > 90 µM

Compound: CC(O)C1CCCCC1 (centres unmarked) [1-Cyclohexylethanol]
- CC50 at 24 h (AC50 (uM) modified / 1000): > 90 µM

Compound: O=C1c2ccccc2C(=O)C1c1ccc(Br)cc1 [Bromindione]
- CC50 at 24 h (AC50 (uM) modified / 1000): > 50 µM

Compound: COc1ccc(NS(=O)(=O)c2ccc(N)cc2)nn1 [Sulfamethoxypyridazine]
- CC50 at 24 h (AC50 (uM) modified / 1000): > 20 µM

Compound: COC(=O)CCC(=O)OC [Dimethyl succinate]
- CC50 at 24 h (AC50 (uM) modified / 1000): > 90 µM

Compound: CC(C)C[P+](C)(CC(C)C)CC(C)C [Triisobutylmethylphosphonium tosylate]
- CC50 at 24 h (AC50 (uM) modified / 1000): > 90 µM

Compound: CCCCC(CC)COC(=O)c1c(Br)c(Br)c(Br)c(Br)c1C(=O)OCC(CC)CCCC (centres unmarked) [Bis(2-ethylhexyl) tetrabromophthalate]
- CC50 at 24 h (AC50 (uM) modified / 1000, Tox21_110001=Tox21_302404, viability, 1 nM T3 present, 24 h): > 70 µM

Compound: N=C(N)NN [Aminoguanidine hydrochloride]
- CC50 at 24 h (AC50 (uM) modified / 1000): > 90 µM

Compound: Cc1ccc(NC(=O)N(C)C)cc1NC(=O)N(C)C [3,3'-(4-Methylbenzene-1,3-diyl)bis(1,1-dimethylurea)]
- CC50 at 24 h (AC50 (uM) modified / 1000): > 90 µM

Compound: CCCc1c(OCCCOc2ccc(OCC(=O)O)cc2)ccc(C(C)=O)c1O [4-[3-(4-Acetyl-3-hydroxy-2-propylphenoxy)propoxy]phenoxy-acetic acid]
- CC50 at 24 h (AC50 (uM) modified / 1000): > 90 µM

Compound: CN(C)CCc1c[nH]c2ccc(CS(=O)(=O)N3CCCC3)cc12 [Almotriptan]
- CC50 at 24 h (AC50 (uM) modified / 1000): > 50 µM

Compound: COc1cc(C=O)cc2c1[C@H](COC(N)=O)[C@]1(OC(C)=O)ON2C[C@H]2[C@@H]1N2C(C)=O [PharmaGSID_48166]
- CC50 at 24 h (AC50 (uM) modified / 1000): 1.23 µM

Compound: Nc1c(Br)cc(Br)c2c1C(=O)c1ccccc1C2=O [1-Amino-2,4-dibromoanthraquinone]
- CC50 at 24 h (AC50 (uM) modified / 1000, Tox21_110001=Tox21_202582, viability, 1 nM T3 present, 24 h): > 20 µM

Compound: O=C(Cc1ccccc1)c1ccccc1 [1,2-Diphenylethanone]
- CC50 at 24 h (AC50 (uM) modified / 1000, Tox21_110001=Tox21_302159, viability, 1 nM T3 present, 24 h): > 90 µM

Compound: CCCCCCCCCCCCC(=O)O [Tridecanoic acid]
- CC50 at 24 h (AC50 (uM) modified / 1000): > 90 µM

Compound: CCNS(=O)(=O)c1ccc(C)cc1 [N-Ethyl-4-methylbenzenesulfonamide]
- CC50 at 24 h (AC50 (uM) modified / 1000): > 90 µM

Compound: C=C(C)CC(C)(C)C [2,4,4-Trimethyl-1-pentene]
- CC50 at 24 h (AC50 (uM) modified / 1000): > 90 µM

Compound: CC(C)[C@H](N)C(=O)OCCOCn1cnc2c(=O)[nH]c(N)nc21 [Valacyclovir hydrochloride]
- CC50 at 24 h (AC50 (uM) modified / 1000): > 50 µM

Compound: COc1ccc2c(c1OC)C(=O)O[C@@H]2[C@H]1c2c(cc3c(c2OC)OCO3)CCN1C [Noscapine]
- CC50 at 24 h (AC50 (uM) modified / 1000): 15 µM

Compound: COC(=O)CC(=O)OC [Dimethyl malonate]
- CC50 at 24 h (AC50 (uM) modified / 1000): > 100 µM

Compound: NC(=O)c1ccccc1N [2-Aminobenzamide]
- CC50 at 24 h (AC50 (uM) modified / 1000): > 90 µM

Compound: O=[N+]([O-])C(CO)(CO)CO [2-(Hydroxymethyl)-2-nitro-1,3-propanediol]
- CC50 at 24 h (AC50 (uM) modified / 1000): > 90 µM

Compound: CNC(=O)Oc1ccc2c(c1)[C@]1(C)CCN(C)[C@@H]1N2C [Physostigmine]
- CC50 at 24 h (AC50 (uM) modified / 1000): > 90 µM

Compound: O=C(c1ccc(F)cc1)C1CCN(CCn2c(=S)[nH]c3ccccc3c2=O)CC1 [Altanserin hydrochloride]
- CC50 at 24 h (AC50 (uM) modified / 1000): > 50 µM

Compound: O=C(O)CCCCCCC(=O)O [Octanedioic acid]
- CC50 at 24 h (AC50 (uM) modified / 1000): > 90 µM

Compound: CCc1ccc(Br)cc1 [1-Bromo-4-ethylbenzene]
- CC50 at 24 h (AC50 (uM) modified / 1000): > 90 µM

Compound: COC(CC(C)CCCC(C)(C)O)OC (centres unmarked) [Hydroxycitronellal dimethyl acetal]
- CC50 at 24 h (AC50 (uM) modified / 1000): > 90 µM

Compound: O=C1CCCO1 [4-Butyrolactone]
- CC50 at 24 h (AC50 (uM) modified / 1000, Tox21_110001=Tox21_200490, viability, 1 nM T3 present, 24 h): > 90 µM

Compound: CCCCCC=CCC1CC(=O)OC1=O (centres unmarked) [2-Octen-1-ylsuccinic anhydride]
- CC50 at 24 h (AC50 (uM) modified / 1000): > 90 µM

Compound: Nc1ncc([N+](=O)[O-])s1 [2-Amino-5-nitrothiazole]
- CC50 at 24 h (AC50 (uM) modified / 1000): > 90 µM

Compound: CC(C)(C)NCC(O)c1cc(O)cc(O)c1 (centres unmarked) [Terbutaline hemisulfate]
- CC50 at 24 h (AC50 (uM) modified / 1000): > 50 µM

Compound: Cc1ccccc1N=O [2-Nitrosotoluene]
- CC50 at 24 h (AC50 (uM) modified / 1000): > 90 µM

Compound: c1ccncc1 [Pyridine hydrochloride]
- CC50 at 24 h (AC50 (uM) modified / 1000): > 90 µM

Compound: CCOC(C)OCC [Acetal]
- CC50 at 24 h (AC50 (uM) modified / 1000): > 90 µM

Compound: CCCCC(CC)COC(C)=O (centres unmarked) [2-Ethylhexyl acetate]
- CC50 at 24 h (AC50 (uM) modified / 1000): > 90 µM

Compound: Cc1ncc(CO)c(CN)c1O [Pyridoxamine dihydrochloride]
- CC50 at 24 h (AC50 (uM) modified / 1000): > 50 µM

Compound: C=C(C)C(=O)OCCC[Si](Cl)(Cl)Cl [3-(Trichlorosilyl)propyl methacrylate]
- CC50 at 24 h (AC50 (uM) modified / 1000): > 90 µM

Compound: CCC(C(=O)NC(=O)NC(C)=O)c1ccccc1 (centres unmarked) [Acetylpheneturide]
- CC50 at 24 h (AC50 (uM) modified / 1000): > 50 µM

Compound: Nc1ccc(N=Nc2ccccc2)cc1 [4-Aminoazobenzene]
- CC50 at 24 h (AC50 (uM) modified / 1000): > 90 µM

Compound: CC(C)=CCC/C(C)=C/CO [Geraniol]
- CC50 at 24 h (AC50 (uM) modified / 1000): > 90 µM

Compound: CNC(=O)Oc1ccccc1OC(C)C [Propoxur]
- CC50 at 24 h (AC50 (uM) modified / 1000): > 90 µM

Compound: COc1ccc(C(CN(C)C)C2(O)CCCCC2)cc1 (centres unmarked) [Venlafaxine hydrochloride]
- CC50 at 24 h (AC50 (uM) modified / 1000): > 90 µM

Compound: OCCC(F)(F)C(F)(F)C(F)(F)C(F)(F)C(F)(F)C(F)(F)F [6:2 Fluorotelomer alcohol]
- CC50 at 24 h (AC50 (uM) modified / 1000): > 90 µM

Compound: Cc1cc(C)c(NC(=O)C[C@H](CC(=O)O)c2cccc3ccccc23)c(C(=O)N2CCC3(CCCC3)CC2)c1 [Itriglumide sodium]
- CC50 at 24 h (AC50 (uM) modified / 1000): 26.9 µM

Compound: [Cl][Cd][Cl] [Cadmium chloride]
- CC50 at 24 h (AC50 (uM) modified / 1000, Tox21_110001=Tox21_202229, viability, 1 nM T3 present, 24 h): 26.6 µM
- CC50 at 24 h (AC50 (uM) modified / 1000, Tox21_110001=Tox21_303000, viability, 1 nM T3 present, 24 h): 32.6 µM

Compound: CC(COc1ccccc1)NC(C)C(O)c1ccc(O)cc1 (centres unmarked) [Isoxsuprine hydrochloride]
- CC50 at 24 h (AC50 (uM) modified / 1000): > 20 µM

Compound: CC(C)(O)CCCC1=CCC(C=O)CC1 (centres unmarked) [4-(4-Hydroxy-4-methylpentyl)cyclohex-3-ene-1-carbaldehyde]
- CC50 at 24 h (AC50 (uM) modified / 1000): > 100 µM

Compound: C[C@H](CN1CCOCC1)C(C(=O)N1CCCC1)(c1ccccc1)c1ccccc1 [Dextromoramide tartrate]
- CC50 at 24 h (AC50 (uM) modified / 1000, Tox21_110001=Tox21_112829, viability, 1 nM T3 present, 24 h): > 100 µM

Compound: CCN(CC)CCOC(=O)c1ccc(N)cc1Cl [Chloroprocaine hydrochloride]
- CC50 at 24 h (AC50 (uM) modified / 1000): > 50 µM

Compound: COCC(=O)Nc1c(I)c(C(=O)NCC(O)CO)c(I)c(C(=O)N(C)CC(O)CO)c1I (mixture of isomers) [Iopromide]
- CC50 at 24 h (AC50 (uM) modified / 1000): > 20 µM

Compound: CC1(C)C2(Cl)C(Cl)C(Cl)C(Cl)(C(Cl)Cl)C1(Cl)C2Cl (centres unmarked) [Strobane]
- CC50 at 24 h (AC50 (uM) modified / 1000): 21 µM

Compound: C=CC1CC=CCC1 (centres unmarked) [4-Vinylcyclohexene]
- CC50 at 24 h (AC50 (uM) modified / 1000): > 90 µM

Compound: COC1=CC(=O)O[C@@H](/C=C/c2ccccc2)C1 [Kavain]
- CC50 at 24 h (AC50 (uM) modified / 1000, Tox21_110001=Tox21_200907, viability, 1 nM T3 present, 24 h): > 90 µM

Compound: C#C[C@]1(OC(C)=O)CC[C@H]2[C@@H]3CCC4=CC(=O)CC[C@@H]4[C@H]3CC[C@@]21C [Norethindrone acetate]
- CC50 at 24 h (AC50 (uM) modified / 1000): > 50 µM

Compound: C[C@]12CC[C@@H]3c4ccc(O)cc4CC[C@H]3[C@@H]1CCC2=O [Estrone]
- CC50 at 24 h (AC50 (uM) modified / 1000): > 50 µM

Compound: COc1ccc(Cc2cnc(N)nc2N)cc1OC [Diaveridine]
- CC50 at 24 h (AC50 (uM) modified / 1000): > 50 µM

Compound: C[C@@H]1[C@@H]2Cc3ccc(O)cc3[C@@]1(C)CCN2CC1CC1 [(+)-Cyclazocine]
- CC50 at 24 h (AC50 (uM) modified / 1000, Tox21_110001=Tox21_113513, viability, 1 nM T3 present, 24 h): > 50 µM

Compound: COCC(C)OCC(C)OC(C)=O (centres unmarked) [Dipropyleneglycol methyl ether acetate]
- CC50 at 24 h (AC50 (uM) modified / 1000): > 90 µM

Compound: Cc1ccc(S(=O)(=O)NC(=O)N[C@@H](C)Cc2ccccc2)cc1 [Tosifen]
- CC50 at 24 h (AC50 (uM) modified / 1000): > 50 µM
